Experimental data reported in the NIST ThermoML archive (doi:10.1016/j.jct.2015.01.007).

Assay: molar heat capacity at constant pressure
Details: 101.33 kPa

O=P([O-])([O-])[O-].[Fe+2].[Li+] [iron(II) lithium phosphate]
Details	molar heat capacity at constant pressure [J/K/mol]
2.03 K, Crystal 2, relaxation calorimetry	0.0162
2.2 K, Crystal 2, relaxation calorimetry	0.0187
2.38 K, Crystal 2, relaxation calorimetry	0.0224
2.58 K, Crystal 2, relaxation calorimetry	0.0243
2.8 K, Crystal 2, relaxation calorimetry	0.0271
3.04 K, Crystal 2, relaxation calorimetry	0.0309
3.29 K, Crystal 2, relaxation calorimetry	0.0325
3.56 K, Crystal 2, relaxation calorimetry	0.0401
3.86 K, Crystal 2, relaxation calorimetry	0.048
4.19 K, Crystal 2, relaxation calorimetry	0.0562
4.54 K, Crystal 2, relaxation calorimetry	0.059
4.92 K, Crystal 2, relaxation calorimetry	0.0709
5 K, Crystal 2, relaxation calorimetry	0.0481
5.33 K, Crystal 2, relaxation calorimetry	0.0742
5.78 K, Crystal 2, relaxation calorimetry	0.0903
6.26 K, Crystal 2, relaxation calorimetry	0.101
6.78 K, Crystal 2, relaxation calorimetry	0.12
7.35 K, Crystal 2, relaxation calorimetry	0.138
7.97 K, Crystal 2, relaxation calorimetry	0.173
8.64 K, Crystal 2, relaxation calorimetry	0.22
9.36 K, Crystal 2, relaxation calorimetry	0.276
10 K, Crystal 2, relaxation calorimetry	0.3419
10.14 K, Crystal 2, relaxation calorimetry	0.364
10.23 K, Crystal 2, relaxation calorimetry	0.46
10.75 K, Crystal 2, relaxation calorimetry	0.535
11.26 K, Crystal 2, relaxation calorimetry	0.615
11.77 K, Crystal 2, relaxation calorimetry	0.706
12.28 K, Crystal 2, relaxation calorimetry	0.808
12.8 K, Crystal 2, relaxation calorimetry	0.917
13.31 K, Crystal 2, relaxation calorimetry	1.038
13.83 K, Crystal 2, relaxation calorimetry	1.171
14.34 K, Crystal 2, relaxation calorimetry	1.314
14.85 K, Crystal 2, relaxation calorimetry	1.467
15 K, Crystal 2, relaxation calorimetry	1.514
15.36 K, Crystal 2, relaxation calorimetry	1.631
15.88 K, Crystal 2, relaxation calorimetry	1.797
16.39 K, Crystal 2, relaxation calorimetry	1.977
16.9 K, Crystal 2, relaxation calorimetry	2.169
17.41 K, Crystal 2, relaxation calorimetry	2.363
17.93 K, Crystal 2, relaxation calorimetry	2.571
18.44 K, Crystal 2, relaxation calorimetry	2.79
18.95 K, Crystal 2, relaxation calorimetry	3.015
19.47 K, Crystal 2, relaxation calorimetry	3.249
19.98 K, Crystal 2, relaxation calorimetry	3.484
20 K, Crystal 2, relaxation calorimetry	3.498
20.49 K, Crystal 2, relaxation calorimetry	3.75
21.01 K, Crystal 2, relaxation calorimetry	3.99
21.51 K, Crystal 2, relaxation calorimetry	4.26
22.03 K, Crystal 2, relaxation calorimetry	4.55
22.54 K, Crystal 2, relaxation calorimetry	4.83
23.05 K, Crystal 2, relaxation calorimetry	5.13
23.56 K, Crystal 2, relaxation calorimetry	5.43
24.08 K, Crystal 2, relaxation calorimetry	5.74
24.59 K, Crystal 2, relaxation calorimetry	6.06
25 K, Crystal 2, relaxation calorimetry	6.334
25.1 K, Crystal 2, relaxation calorimetry	6.4
25.61 K, Crystal 2, relaxation calorimetry	6.75
26.13 K, Crystal 2, relaxation calorimetry	7.09
26.64 K, Crystal 2, relaxation calorimetry	7.45
27.15 K, Crystal 2, relaxation calorimetry	7.84
27.67 K, Crystal 2, relaxation calorimetry	8.22
28.18 K, Crystal 2, relaxation calorimetry	8.63
28.69 K, Crystal 2, relaxation calorimetry	9.04
29.2 K, Crystal 2, relaxation calorimetry	9.47
29.71 K, Crystal 2, relaxation calorimetry	9.92
30 K, Crystal 2, relaxation calorimetry	10.17
30.22 K, Crystal 2, relaxation calorimetry	10.36
30.73 K, Crystal 2, relaxation calorimetry	10.82
31.24 K, Crystal 2, relaxation calorimetry	11.31
31.76 K, Crystal 2, relaxation calorimetry	11.78
32.27 K, Crystal 2, relaxation calorimetry	12.28
32.78 K, Crystal 2, relaxation calorimetry	12.78
33.29 K, Crystal 2, relaxation calorimetry	13.28
33.8 K, Crystal 2, relaxation calorimetry	13.81
34.31 K, Crystal 2, relaxation calorimetry	14.35
34.82 K, Crystal 2, relaxation calorimetry	14.9
35 K, Crystal 2, relaxation calorimetry	15.09
35.34 K, Crystal 2, relaxation calorimetry	15.46
35.85 K, Crystal 2, relaxation calorimetry	16.03
37.02 K, Crystal 2, relaxation calorimetry	17.18
38.89 K, Crystal 2, relaxation calorimetry	19.19
40 K, Crystal 2, relaxation calorimetry	20.69
40.75 K, Crystal 2, relaxation calorimetry	21.8
42 K, Crystal 2, relaxation calorimetry	23.73
42.62 K, Crystal 2, relaxation calorimetry	24.74
44.48 K, Crystal 2, relaxation calorimetry	28.1
45 K, Crystal 2, relaxation calorimetry	29.13
45.5 K, Crystal 2, relaxation calorimetry	30.18
45.72 K, Crystal 2, relaxation calorimetry	30.67
45.92 K, Crystal 2, relaxation calorimetry	31.15
46 K, Crystal 2, relaxation calorimetry	31.31
46.14 K, Crystal 2, relaxation calorimetry	31.65
46.34 K, Crystal 2, relaxation calorimetry	32.17
46.55 K, Crystal 2, relaxation calorimetry	32.68
46.75 K, Crystal 2, relaxation calorimetry	33.24
46.97 K, Crystal 2, relaxation calorimetry	33.77
47 K, Crystal 2, relaxation calorimetry	33.89
47.16 K, Crystal 2, relaxation calorimetry	34.33
47.38 K, Crystal 2, relaxation calorimetry	34.9
47.58 K, Crystal 2, relaxation calorimetry	35.53
47.8 K, Crystal 2, relaxation calorimetry	36.14
47.99 K, Crystal 2, relaxation calorimetry	36.79
48 K, Crystal 2, relaxation calorimetry	36.77
48.2 K, Crystal 2, relaxation calorimetry	37.43
48.4 K, Crystal 2, relaxation calorimetry	38.11
48.62 K, Crystal 2, relaxation calorimetry	38.7
48.82 K, Crystal 2, relaxation calorimetry	39.3
49 K, Crystal 2, relaxation calorimetry	39.73
49.03 K, Crystal 2, relaxation calorimetry	39.72
49.22 K, Crystal 2, relaxation calorimetry	40.03
49.24 K, Crystal 1, combination of DSC and relaxation calorimetry	39.99
49.24 K, Crystal 2, relaxation calorimetry	39.99
49.44 K, Crystal 1, relaxation calorimetry	39.73
49.64 K, Crystal 1, relaxation calorimetry	38.83
49.85 K, Crystal 1, relaxation calorimetry	36.64
50 K, Crystal 1, combination of DSC and relaxation calorimetry	34.52
50.05 K, Crystal 1, relaxation calorimetry	33.84
50.27 K, Crystal 1, relaxation calorimetry	30.69
50.47 K, Crystal 1, relaxation calorimetry	28.52
50.69 K, Crystal 1, relaxation calorimetry	26.66
50.89 K, Crystal 1, relaxation calorimetry	25.59
51 K, Crystal 1, combination of DSC and relaxation calorimetry	25.15
51.08 K, Crystal 1, relaxation calorimetry	24.86
51.29 K, Crystal 1, relaxation calorimetry	24.3
51.5 K, Crystal 1, relaxation calorimetry	23.89
51.7 K, Crystal 1, relaxation calorimetry	23.58
51.9 K, Crystal 1, relaxation calorimetry	23.36
52 K, Crystal 1, combination of DSC and relaxation calorimetry	23.25
52.12 K, Crystal 1, relaxation calorimetry	23.13
52.32 K, Crystal 1, relaxation calorimetry	22.99
52.53 K, Crystal 1, relaxation calorimetry	22.88
52.72 K, Crystal 1, relaxation calorimetry	22.83
52.94 K, Crystal 1, relaxation calorimetry	22.74
53 K, Crystal 1, combination of DSC and relaxation calorimetry	22.72
53.14 K, Crystal 1, relaxation calorimetry	22.69
53.35 K, Crystal 1, relaxation calorimetry	22.66
53.55 K, Crystal 1, relaxation calorimetry	22.66
53.77 K, Crystal 1, relaxation calorimetry	22.66
53.96 K, Crystal 1, relaxation calorimetry	22.66
54 K, Crystal 1, combination of DSC and relaxation calorimetry	22.66
54.18 K, Crystal 1, relaxation calorimetry	22.69
54.38 K, Crystal 1, relaxation calorimetry	22.68
54.59 K, Crystal 1, relaxation calorimetry	22.73
54.79 K, Crystal 1, relaxation calorimetry	22.77
55 K, Crystal 1, combination of DSC and relaxation calorimetry	22.82
55 K, Crystal 1, relaxation calorimetry	22.82
55.2 K, Crystal 1, relaxation calorimetry	22.85
55.41 K, Crystal 1, relaxation calorimetry	22.91
55.62 K, Crystal 1, relaxation calorimetry	22.95
56.61 K, Crystal 1, relaxation calorimetry	23.28
57.71 K, Crystal 1, relaxation calorimetry	23.69
58.79 K, Crystal 1, relaxation calorimetry	24.17
59.89 K, Crystal 1, relaxation calorimetry	24.67
60 K, Crystal 1, combination of DSC and relaxation calorimetry	24.71
60.97 K, Crystal 1, relaxation calorimetry	25.19
62.06 K, Crystal 1, relaxation calorimetry	25.78
63.15 K, Crystal 1, relaxation calorimetry	26.36
64.24 K, Crystal 1, relaxation calorimetry	26.97
65 K, Crystal 1, combination of DSC and relaxation calorimetry	27.41
65.33 K, Crystal 1, relaxation calorimetry	27.59
